The text below walks through data of PubChem BioAssay (NCI).

Structures are written as SMILES.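 These data come from cells grown in 96-well plates and exposed to compound for 48 hours at five concentrations. Abbreviation: GI50, concentration required for 50% inhibition of growth. TGI: concentration producing complete growth inhibition.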

Among the test systems are CCRF-CEM leukemia; HCT-116 colon; IGROV1 ovarian; SK-MEL-5 melanoma; SR leukemia; U251 CNS; UACC-257 melanoma; HCT-15 colon.
Common to all, as to experiment: NCI-60 cell line screen, 48 h

With `Fc1ccc2c(c1)cc1ccc3cccc4ccc2c1c34`, the TGI with CCRF-CEM leukemia, in the experiment on HCT-116 colon, in the experiment on IGROV1 ovarian, with SK-MEL-5 melanoma, in the experiment with SR leukemia and in the experiment on U251 CNS was greater than 100 µM each time. Moreover, the TGI in the experiment with UACC-257 melanoma was greater than 100 µM.

With `COc1ccc2c(c1OC)C(C=C(c1ccccc1)c1ccccc1)CN(C)C2` (centres undefined), the TGI with CCRF-CEM leukemia turned out to be 56.6 µM; in the experiment with HCT-116 colon it was 20.7 µM; in the experiment with HCT-15 colon, 33 µM; with IGROV1 ovarian, 43.5 µM; with SK-MEL-5 melanoma it was 29.7 µM; with U251 CNS, 57.3 µM. In the experiment on UACC-257 melanoma, the TGI is 54.8 µM.

As for `CC(C)(C)C1CCC(=O)C(C(O)CC2CC(=O)N(c3ccccc3)C(=O)C2)C1` (centres undefined), the TGI in the experiment on CCRF-CEM leukemia, in the experiment with HCT-116 colon, in the experiment on HCT-15 colon, in the experiment with IGROV1 ovarian, in the experiment with SR leukemia and in the experiment with U251 CNS was greater than 100 µM in each case. In the experiment on UACC-257 melanoma, this molecule came in with a TGI greater than 100 µM.

On to `CCCCCN(CCCCC)C(=O)[C@H](CCC(=O)OCc1ccccc1)NC(=O)c1cc2ccccc2[nH]1`, for which the TGI with CCRF-CEM leukemia, with HCT-116 colon, with HCT-15 colon, with IGROV1 ovarian, in the experiment on U251 CNS and in the experiment on UACC-257 melanoma was greater than 100 µM in each case.

As for `[N-]=[N+]=NC1C2CC3CC(C2)CC1C3` (centres undefined), the TGI with CCRF-CEM leukemia, with HCT-116 colon, with IGROV1 ovarian, in the experiment on SK-MEL-5 melanoma, in the experiment with SR leukemia and in the experiment on U251 CNS was greater than 100 µM in each case. This molecule also gave a TGI in the experiment on UACC-257 melanoma greater than 100 µM.

On to `CCC(C)(C)NS(=O)(=O)c1ccccc1`, for which the TGI in the experiment on CCRF-CEM leukemia, in the experiment with HCT-116 colon, in the experiment on HCT-15 colon, with IGROV1 ovarian, with SK-MEL-5 melanoma and in the experiment with U251 CNS was greater than 100 µM in each case. The TGI in the experiment on UACC-257 melanoma was greater than 100 µM.

Consider `COc1cc(OC)cc(C(=O)Cc2c(C(=O)c3ccccc3)c3ccccc3n2C(=O)c2ccccc2)c1`, for which the TGI is greater than 100 µM in the experiment on CCRF-CEM leukemia; greater than 100 µM in the experiment on HCT-116 colon; greater than 100 µM in the experiment with HCT-15 colon; greater than 100 µM in the experiment with IGROV1 ovarian; 35.1 µM in the experiment on SK-MEL-5 melanoma; greater than 100 µM in the experiment with SR leukemia. The molecule also gave a TGI in the experiment on U251 CNS greater than 100 µM.

Consider `CC(C)c1cc(C(=O)[O-])c(O)c(C(C)C)c1.CC(C)c1cc(C(=O)[O-])c(O)c(C(C)C)c1.CC(C)c1cc(C(=O)[O-])c(O)c(C(C)C)c1.CC(C)c1cc(C(=O)[O-])c(O)c(C(C)C)c1.CC(C)c1cc(C(=O)[O-])c(O)c(C(C)C)c1.CC(C)c1cc(C(=O)[O-])c(O)c(C(C)C)c1.[Cu+2].[Mn+2].[Mn+2]`, for which the GI50 was 15.8 µM with CCRF-CEM leukemia; 21.2 µM in the experiment on HCT-116 colon; 39.3 µM in the experiment on HCT-15 colon; 15.2 µM in the experiment with IGROV1 ovarian; 17.1 µM in the experiment on SK-MEL-5 melanoma; 9.43 µM with U251 CNS. Besides, the GI50 in the experiment on UACC-257 melanoma is 29.6 µM. Also, the TGI was 42.8 µM in the experiment with CCRF-CEM leukemia; 37.8 µM with HCT-116 colon; greater than 100 µM with HCT-15 colon; 38.4 µM with IGROV1 ovarian; 32.3 µM in the experiment on SK-MEL-5 melanoma; 22.7 µM in the experiment on U251 CNS. In the experiment with UACC-257 melanoma, this molecule gave a TGI of 67.1 µM.

In the case of `COC(=O)c1ccc(/C=C/S(=O)(=O)c2ccccc2)cc1`, the TGI in the experiment on CCRF-CEM leukemia, with HCT-116 colon, in the experiment on HCT-15 colon, in the experiment with IGROV1 ovarian, in the experiment with SK-MEL-5 melanoma and in the experiment with U251 CNS was greater than 100 µM in each case. This molecule had a TGI with UACC-257 melanoma greater than 100 µM.

As for `COc1ccc(/C=C2\CCc3ccccc3C2=O)cc1OC`, the TGI in the experiment on CCRF-CEM leukemia was greater than 100 µM; with HCT-116 colon it was 36.7 µM; in the experiment on HCT-15 colon it was 45.5 µM; with IGROV1 ovarian, greater than 100 µM; in the experiment on SK-MEL-5 melanoma, 30.9 µM; in the experiment with U251 CNS, greater than 100 µM. In the experiment with UACC-257 melanoma, this molecule gave a TGI of 43.1 µM.

On to `C/C=C(\C)C(=O)N1c2ccccc2CC1c1c(C)[nH]c2ccccc12` (centres undefined), for which the TGI with CCRF-CEM leukemia, with HCT-116 colon, with HCT-15 colon, in the experiment with IGROV1 ovarian, with SR leukemia and in the experiment with U251 CNS was greater than 100 µM in each case. This molecule also displayed a TGI in the experiment with UACC-257 melanoma greater than 100 µM.

Consider `COc1c(Cl)[c]([Hg][O]C(C)=O)c(NCC(C)=O)c(OC)[c]1[Hg][O]C(C)=O`, for which the GI50 with CCRF-CEM leukemia is 10.3 µM; in the experiment with IGROV1 ovarian, 15.6 µM; in the experiment on SK-MEL-5 melanoma, 11.1 µM; with U251 CNS it was 10 µM; in the experiment on UACC-257 melanoma it was 15.4 µM. Further, the TGI came out at 34.4 µM in the experiment on CCRF-CEM leukemia; 31.6 µM with IGROV1 ovarian; 26.1 µM with SK-MEL-5 melanoma; 21.9 µM with U251 CNS; 29.9 µM in the experiment on UACC-257 melanoma.

For the molecule `Cc1nc(-n2nc(-c3ccccc3)cc2-c2ccccc2)sc1C(=O)/C=C/c1ccc(Cl)cc1`, the TGI in the experiment with CCRF-CEM leukemia was 78.1 µM; with HCT-15 colon it was greater than 100 µM; in the experiment with IGROV1 ovarian, greater than 100 µM; in the experiment with SK-MEL-5 melanoma, 31 µM; in the experiment on U251 CNS it was 36.9 µM; in the experiment with UACC-257 melanoma it was 49.1 µM.
